One test has as its target p70S6K (T412E mutant) (Homo sapiens (Human), UniProt P23443, T412E). The experiment in a line: p70S6K enzyme assay. Format: biochemical. The settings on record: 24 μM ATP, 90 min at 25° C., Caliper mobility shift. The procedure: p70S6K inhibitor compounds were diluted and plated in 96 well plates. A reaction mixture including the following components were then added to the compound plate to initiate the enzyme reaction: p70S6K (3 nM, T412E mutant, Millipore) was mixed with 24 μM ATP in an assay buffer containing 100 mM Hepes (pH 7.5), 5 mM MgCl2, 1 mM DTT, 0.015% Brij and 1 μM of the substrate peptide FITC-AHA-[…]-OH (derived from the S6 ribosomal protein sequence, FITC=fluorescein isothiocyanate, AHA=6-aminohexanoic acid). The reaction was incubated for 90 min at 25° C., before the addition of 10 mM EDTA to stop the reaction. The proportion of substrate and product (phosphorylated) peptide was analyzed on a Caliper Life Sciences Lab Chip 3000, using a pressure of −1.4 psi, and upstream and downstream voltages of −3000 and −700, respectively. Product peaks were resolved before substrate peaks on the resulting chromatograms. To assess the inhibitory potential of the compounds, IC50 values were determined, as shown above.

The next test concerns the target His-AKT (Full Length) (Homo sapiens (Human), UniProt P31749). Nature of the test: AKT/PKB kinase assay. The class given is biochemical. Conditions: 160 μM ATP, 90 min at 25° C., Caliper mobility shift. The method, then:
In order to measure AKT inhibition in the Caliper Life Sciences LC3000, a TTP Mosquito liquid handling instrument was used to place 125 nl of the appropriate concentration of inhibitor in 100% DMSO (for a dose response curve calculation) into each well of a 384-well plate. To this reaction, the following components were added to a final volume of 12.5 μl: • 0.1 ng/μl His-AKT (Full Length) (Invitrogen, Part # P2999, Lot #641228C); • 160 μM ATP (Fluka, 02055); • 1 mM DTT (Sigma, D0632); • 1 mM MgCl2 (Sigma, M1028); • 1 μM substrate peptide (sequence FITC-AHA-[…]-NH2), synthesized by • Tufts Peptide Synthesis service; • 100 mM HEPES pH 7.5 (Calbiochem, 391338); and • 0.015% Brij-35 (Sigma, B4184).
The reaction was incubated for 90 min at 25° C., and then stopped by the addition of 70 μl of Stop buffer (100 mM HEPES pH 7.5, 0.015% Brij-35, 10 mM EDTA (Sigma, E7889)). The plate was read on a Caliper LC 3000 in an Off-Chip mobility shift assay format, using the following parameters for a 12-sipper chip: screening pressure −2.3 psi, upstream voltage −500, and downstream voltage −3000. These conditions cause unphosphorylated substrate and phosphorylated product peptide to resolve as separate peaks allowing direct measurement of percentage of conversion of substrate to product. The percent conversion was plotted against concentration of inhibitor to produce a sigmoidal dose response curve, from which an IC50 was calculated.

Structures are written as SMILES. Some results are limits rather than exact numbers.

One may read the IC50 as the concentration needed to halve the response being measured.

Chain of His-AKT (Full Length) (P31749 whole entry): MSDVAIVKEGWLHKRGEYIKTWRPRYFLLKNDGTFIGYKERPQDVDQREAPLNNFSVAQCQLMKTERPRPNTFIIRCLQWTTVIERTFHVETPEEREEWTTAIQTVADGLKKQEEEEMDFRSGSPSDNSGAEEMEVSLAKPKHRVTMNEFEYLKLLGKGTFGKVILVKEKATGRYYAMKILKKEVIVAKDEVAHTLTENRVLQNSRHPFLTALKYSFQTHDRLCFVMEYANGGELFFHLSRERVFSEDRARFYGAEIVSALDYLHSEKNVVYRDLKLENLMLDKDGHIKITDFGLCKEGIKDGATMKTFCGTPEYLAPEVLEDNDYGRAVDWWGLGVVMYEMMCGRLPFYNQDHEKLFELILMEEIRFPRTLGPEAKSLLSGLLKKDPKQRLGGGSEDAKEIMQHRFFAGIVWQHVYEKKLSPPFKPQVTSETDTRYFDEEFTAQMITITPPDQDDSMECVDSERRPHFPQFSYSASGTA
Chain of p70S6K (T412E mutant) (P23443 whole entry T412E): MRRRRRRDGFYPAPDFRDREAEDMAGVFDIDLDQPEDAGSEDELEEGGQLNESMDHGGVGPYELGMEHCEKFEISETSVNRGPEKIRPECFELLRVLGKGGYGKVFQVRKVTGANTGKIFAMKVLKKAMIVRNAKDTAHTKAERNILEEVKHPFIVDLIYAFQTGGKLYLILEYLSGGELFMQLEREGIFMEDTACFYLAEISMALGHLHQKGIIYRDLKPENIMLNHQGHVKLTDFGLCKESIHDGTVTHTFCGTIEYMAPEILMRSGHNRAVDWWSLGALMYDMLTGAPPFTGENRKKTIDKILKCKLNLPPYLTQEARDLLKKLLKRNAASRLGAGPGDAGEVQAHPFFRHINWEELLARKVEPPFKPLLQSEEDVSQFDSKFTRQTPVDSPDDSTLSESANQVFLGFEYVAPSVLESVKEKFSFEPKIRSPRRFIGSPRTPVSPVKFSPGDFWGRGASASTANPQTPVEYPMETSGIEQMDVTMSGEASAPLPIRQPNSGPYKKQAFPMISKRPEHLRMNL

For `CNC[C@@H](Nc1ncnc2c(C(N)=O)ccnc12)c1ccc(C(F)(F)F)c(F)c1` [Compound 26, 4-[(S)-1-(3-Fluoro-4-trifluoromethyl-phenyl)-2-methylamino-ethylamino]-pyrido[3,2-d]pyrimidine-8-carboxylic Acid Amide], the IC50 at p70S6K (T412E mutant) and at His-AKT (Full Length) was less than 25 nM throughout.

Consider `CNC[C@@H](Nc1ncnc2c(C(N)=O)ccnc12)c1ccc(F)c(Br)c1` [Compound 28, 4-[(S)-1-(3-Bromo-4-fluoro-phenyl)-2-methylamino-ethylamino]-pyrido[3,2-d]pyrimidine-8-carboxylic Acid Amide], for which the 50% inhibitory concentration (IC50) at p70S6K (T412E mutant) and on His-AKT (Full Length) was less than 25 nM in each case.

Regarding `CN(C)C[C@@H](Nc1ncnc2c(C(N)=O)ccnc12)c1ccc(F)c(C(F)(F)F)c1` [Compound 50, 4-[(S)-2-Dimethylamino-1-(4-fluoro-3-trifluoromethyl-phenyl)-ethylamino]-pyrido[3,2-d]pyrimidine-8-carboxylic Acid Amide], the IC50 at p70S6K (T412E mutant) is less than 25 nM; on His-AKT (Full Length), 25 to 100 nM.

For the compound `NC(=O)c1ccnc2c(N[C@H](CN3CCC3)c3ccc(C(F)(F)F)cc3)ncnc12` [Compound 27, 4-[(S)-2-Azetidin-1-yl-1-(4-trifluoromethyl-phenyl)-ethylamino]-pyrido[3,2-d]pyrimidine-8-carboxylic Acid Amide], the half-maximal inhibitory concentration (IC50) is less than 25 nM at p70S6K (T412E mutant) and 101 to 500 nM on His-AKT (Full Length).

On to `CNC[C@@H](Nc1ncnc2c(C(N)=O)ccnc12)c1ccc(F)c(C(F)(F)F)c1` [Compound 49, 4-[(S)-1-(4-Fluoro-3-trifluoromethyl-phenyl)-2-methylamino-ethylamino]-pyrido[3,2-d]pyrimidine-8-carboxylic Acid Amide], for which the IC50 at p70S6K (T412E mutant) and at His-AKT (Full Length) was less than 25 nM in each case.

Take `NC(=O)c1cccc2c(NCc3cccc(C(F)(F)F)c3)nnnc12` [Compound 1, 4-(3-Trifluoromethyl-benzylamino)-benzo[d][1,2,3]triazine-8-carboxamide]: the IC50 at p70S6K (T412E mutant) was 101 to 500 nM; on His-AKT (Full Length), more than 1000 nM.

For the compound `N#Cc1cc([C@@H](CN2CCC2)Nc2nnnc3c(C(N)=O)cccc23)ccc1Cl` [Compound 18, (S)-4-((2-(azetidin-1-yl)-1-(4-chloro-3-cyanophenyl)ethyl)amino)benzo[d][1,2,3]triazine-8-carboxamide], the IC50 on p70S6K (T412E mutant) was less than 25 nM; at His-AKT (Full Length), 101 to 500 nM.

Consider `CC(C)NC[C@@H](Nc1ncnc2c(C(N)=O)ccnc12)c1ccc(Cl)c(F)c1` [Compound 54, 4-[(S)-1-(4-Chloro-3-fluoro-phenyl)-2-isopropylamino-ethylamino]-pyrido[3,2-d]pyrimidine-8-carboxylic Acid Amide], for which the IC50 is 25 to 100 nM on p70S6K (T412E mutant) and 101 to 500 nM at His-AKT (Full Length).

Consider `CNC[C@@H](Nc1ncnc2c(C(N)=O)ccnc12)c1cc(F)c(OC)cc1F` [Compound 32, 4-[(S)-1-(2,5-Difluoro-4-methoxy-phenyl)-2-methylamino-ethylamino]-pyrido[3,2-d]pyrimidine-8-carboxylic Acid Amide], for which the figures for the IC50 at p70S6K (T412E mutant) and at His-AKT (Full Length) were less than 25 nM and 101 to 500 nM, respectively.

For `CN(C)C[C@@H](Nc1nnnc2c(C(N)=O)cccc12)c1ccc(Cl)c(Cl)c1` [Compound 15, (S)-4-((1-(3,4-dichlorophenyl)-2-(dimethylamino)ethyl)amino)benzo[d][1,2,3]triazine-8-carboxamide], the half-inhibitory concentration (IC50) at p70S6K (T412E mutant) and on His-AKT (Full Length) was less than 25 nM in each case.

As for `NC(=O)c1ccnc2c(N[C@H](CN3CCC3)c3cccc(F)c3)ncnc12` [Compound 68, 4-[(S)-2-Azetidin-1-yl-1-(3-fluoro-phenyl)-ethylamino]-pyrido[3,2-d]pyrimidine-8-carboxylic Acid Amide], the IC50 on p70S6K (T412E mutant) was less than 25 nM; on His-AKT (Full Length), 25 to 100 nM.

For the compound `NC(=O)c1cccc2c(N[C@H](CN3CCC3)c3ccc(F)c(C(F)(F)F)c3)nnnc12` [Compound 12, (S)-4-((2-(azetidin-1-yl)-1-(4-fluoro-3-(trifluoromethyl)phenyl)ethyl)amino)benzo[d][1,2,3]triazine-8-carboxamide], the IC50 at p70S6K (T412E mutant) and at His-AKT (Full Length) was less than 25 nM in each case.

As for `NC(=O)c1cccc2c(NCc3ccc(Cl)c(C(F)(F)F)c3)nnnc12` [Compound 4, 4-((4-chloro-3-(trifluoromethyl)benzyl)amino)benzo[d][1,2,3]triazine-8-carboxamide], the figures for the IC50 on p70S6K (T412E mutant) and on His-AKT (Full Length) were less than 25 nM and more than 1000 nM, respectively.

As to `CCNC[C@@H](Nc1ncnc2c(C(N)=O)ccnc12)c1ccc(Cl)c(C(F)(F)F)c1` [Compound 33, 4-[(S)-1-(4-Chloro-3-trifluoromethyl-phenyl)-2-ethylamino-ethylamino]-pyrido[3,2-d]pyrimidine-8-carboxylic Acid Amide], the IC50 at p70S6K (T412E mutant) was less than 25 nM; at His-AKT (Full Length), 25 to 100 nM.

On to `CNC[C@@H](Nc1ncnc2c(C(N)=O)ccnc12)c1ccc(C(F)(F)F)cc1` [Compound 38, 4-[(S)-2-Methylamino-1-(4-trifluoromethyl-phenyl)-ethylamino]-pyrido[3,2-d]pyrimidine-8-carboxylic Acid Amide], for which the results for the 50% inhibitory concentration (IC50) at p70S6K (T412E mutant) and at His-AKT (Full Length) were less than 25 nM and 25 to 100 nM, respectively.

On to `CNC[C@@H](Nc1ncnc2c(C(N)=O)ccnc12)c1ccc(Cl)c(Cl)c1` [Compound 75, 4-[(S)-1-(3,4-Dichloro-phenyl)-2-methylamino-ethylamino]-pyrido[3,2-d]pyrimidine-8-carboxylamide], for which the IC50 at p70S6K (T412E mutant) and at His-AKT (Full Length) was less than 25 nM throughout.

For the compound `CNC[C@@H](Nc1ncnc2c(C(N)=O)ccnc12)c1cc(F)cc(C(F)(F)F)c1` [Compound 35, 4-[(S)-1-(3-Fluoro-5-trifluoromethyl-phenyl)-2-methylamino-ethylamino]-pyrido[3,2-d]pyrimidine-8-carboxylic Acid Amide], the IC50 is less than 25 nM on p70S6K (T412E mutant) and 25 to 100 nM at His-AKT (Full Length).

Consider `CN(C)C[C@@H](Nc1ncnc2c(C(N)=O)ccnc12)c1ccc(Cl)c(F)c1` [Compound 53, 4-[(S)-1-(4-Chloro-3-fluoro-phenyl)-2-dimethylamino-ethylamino]-pyrido[3,2-d]pyrimidine-8-carboxylic Acid Amide], for which the concentration for half-maximal inhibition (IC50) on His-AKT (Full Length) lay within 25 to 100 nM.

In the case of `NC(=O)c1cccc2c(NCc3ccccc3)nnnc12` [Compound 6, 4-(benzylamino)benzo[d][1,2,3]triazine-8-carboxamide], the IC50 on p70S6K (T412E mutant) was 501 to 1000 nM; at His-AKT (Full Length), more than 1000 nM.

For `CCNC[C@@H](Nc1ncnc2c(C(N)=O)ccnc12)c1ccc(F)c(C(F)(F)F)c1` [Compound 56, 4-[(S)-2-Ethylamino-1-(4-fluoro-3-trifluoromethyl-phenyl)-ethylamino]-pyrido[3,2-d]pyrimidine-8-carboxylic Acid Amide], the results for the IC50 at p70S6K (T412E mutant) and on His-AKT (Full Length) were less than 25 nM and 25 to 100 nM, respectively.

`CNC[C@@H](Nc1ncnc2c(C(N)=O)ccnc12)c1cccc(F)c1` [Compound 66, 4-[(S)-1-(3-Fluoro-phenyl)-2-methylamino-ethylamino]-pyrido[3,2-d]pyrimidine-8-carboxylic Acid Amide]: the concentration for half-maximal inhibition (IC50) on p70S6K (T412E mutant) and on His-AKT (Full Length) was less than 25 nM in each case.

Take `NC(=O)c1ccnc2c(N[C@H](CN3CCC3)c3ccc(OC(F)(F)F)c(Cl)c3)ncnc12` [Compound 73, 4-[(S)-2-Azetidin-1-yl-1-(3-chloro4-trifluoromethoxy-phenyl)-ethylamino]-pyrido[3,2-d]pyrimidine-8-carboxylamide]: the 50% inhibitory concentration (IC50) is less than 25 nM on p70S6K (T412E mutant) and 25 to 100 nM at His-AKT (Full Length).

Take `NC(=O)c1cncc2c(N[C@@H](CN3CCC3)c3ccc(Cl)c(C(F)(F)F)c3)ncnc12` [Compound 19, (R)-4-((2-(azetidin-1-yl)-1-(4-chloro-3-(trifluoromethyl)phenyl)ethyl)amino)pyrido[4,3-d]pyrimidine-8-carboxamide]: the 50% inhibitory concentration (IC50) on p70S6K (T412E mutant) and at His-AKT (Full Length) was more than 1000 nM in each case.

For the compound `CCNC[C@@H](Nc1ncnc2c(C(N)=O)ccnc12)c1ccc(F)c(Cl)c1` [Compound 61, 4-[(S)-1-(3-Chloro-4-fluoro-phenyl)-2-ethylamino-ethylamino]-pyrido[3,2-d]pyrimidine-8-carboxylic Acid Amide], the concentration for half-maximal inhibition (IC50) on His-AKT (Full Length) fell in the range of 25 to 100 nM.

Regarding `CCNC[C@@H](Nc1ncnc2c(C(N)=O)ccnc12)c1ccc(F)c(Br)c1` [Compound 30, 4-[(S)-1-(3-Bromo-4-fluoro-phenyl)-2-ethylamino-ethylamino]-pyrido[3,2-d]pyrimidine-8-carboxylic Acid Amide], the IC50 on His-AKT (Full Length) lay in the range of 25 to 100 nM.

The values are drawn from patent US9981925B2, “Substituted benzo[d][1,2,3]triazines as p70S6K inhibitors” (Merck Patent GmbH, priority 2012, dated 2018).
